Source: PubChem BioAssay (NCI)
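Growth conditions: 96-well plates. Treatment: test compound, 48 hours, 5 concentrations. Analysis: linear interpolation between bracketing concentrations; unreached endpoints set to highest concentration. Here, GI50 denotes the concentration required for 50% inhibition of growth. TGI denotes the concentration required for complete inhibition of growth.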

What was measured:
Assay in all cases: NCI tumour cell line growth inhibition, 48 h
[1] = test system: OVCAR-8 ovarian
[2] = test system: UO-31 renal
[3] = test system: HL-60(TB) leukemia
[4] = test system: HS 578T breast
[5] = test system: CCRF-CEM leukemia
[6] = test system: A549 NSCLC
[7] = test system: SF-539 CNS
[8] = test system: SF-268 CNS
[9] = test system: UACC-257 melanoma
[10] = test system: OVCAR-3 ovarian
[11] = test system: OVCAR-4 ovarian
[12] = test system: NCI-H23 lung
[13] = test system: OVCAR-5 ovarian
[14] = test system: PC-3 prostate
[15] = test system: RPMI-8226 leukemia
[16] = test system: HT29 colon
[17] = test system: SK-OV-3 ovarian
[18] = test system: HCT-15 colon
[19] = test system: MALME-3M melanoma
[20] = test system: A498 renal
[21] = test system: SN12C renal
[22] = test system: NCI-H522 lung
[23] = test system: MDA-MB-435
[24] = test system: LOX IMVI melanoma
[25] = test system: MCF7 breast
[26] = test system: NCI/ADR-RES ovarian
[27] = test system: MOLT-4 leukemia
[28] = test system: NCI-H460 lung
[29] = test system: EKVX NSCLC
[30] = test system: HOP-62 NSCLC
[31] = test system: HCC-2998 colon
[32] = test system: SNB-75 CNS
[33] = test system: SK-MEL-5 melanoma
[34] = test system: MDA-MB-231 breast
[35] = test system: 786-0 renal
[36] = test system: SNB-19 CNS
[37] = test system: IGROV1 ovarian
[38] = test system: SW-620 colon
[39] = test system: BT-549 breast
[40] = test system: COLO 205 colon
[41] = test system: DU-145 prostate
[42] = test system: SK-MEL-28 melanoma
[43] = test system: SR leukemia
[44] = test system: KM12 colon
[45] = test system: NCI-H226 lung
[46] = test system: T-47D breast
[47] = test system: ACHN renal
[48] = test system: SF-295 CNS
[49] = test system: HCT-116 colon
[50] = test system: HOP-92 NSCLC
[51] = test system: U251 CNS
[52] = test system: K-562 leukemia
[53] = test system: M14 melanoma
[54] = test system: TK-10 renal
[55] = test system: CAKI-1 renal
[56] = test system: SK-MEL-2 melanoma
[57] = test system: RXF 393 renal

Cc1nc2ccccc2c(=O)n1NC(=O)c1ccc(CS)cc1
TGI [1]: > 100 µM
TGI [2]: 29.9 µM
TGI [3]: > 100 µM
TGI [4]: 95.4 µM
TGI [5]: 3.6 µM
TGI [6]: 64.5 µM
TGI [7]: 26.6 µM
TGI [8]: 52 µM
TGI [9]: > 100 µM
TGI [10]: 30.6 µM
TGI [11]: > 100 µM
TGI [12]: 52.1 µM
TGI [13]: 83.9 µM
TGI [14]: 19.2 µM
TGI [15]: > 100 µM
TGI [16]: > 100 µM
TGI [17]: 78 µM
TGI [18]: > 100 µM
TGI [19]: 69.9 µM
TGI [20]: 40.8 µM
TGI [21]: 70.8 µM
TGI [22]: 27 µM
TGI [23]: 31.3 µM
TGI [24]: 0.401 µM
TGI [25]: 26.2 µM
TGI [26]: > 100 µM
TGI [27]: 12.3 µM
TGI [28]: 60.4 µM
TGI [29]: 66.2 µM
TGI [30]: 42.4 µM
TGI [31]: 45.8 µM
TGI [32]: > 100 µM
TGI [33]: 29.2 µM
TGI [34]: 84.6 µM
TGI [35]: 23.6 µM
TGI [36]: > 100 µM
TGI [37]: 27.2 µM
TGI [38]: 21.7 µM
TGI [39]: 46.3 µM
TGI [40]: 62.9 µM
TGI [41]: 88.2 µM
TGI [42]: 28.8 µM
TGI [43]: 43.1 µM
TGI [44]: 63.7 µM
TGI [45]: 14.2 µM
TGI [46]: 87.6 µM
TGI [47]: 27 µM
TGI [48]: > 100 µM
TGI [49]: 16.9 µM
TGI [50]: 40.8 µM
TGI [51]: 23.3 µM
TGI [52]: 68.1 µM
TGI [53]: 34.2 µM

C=CC1CC12C(=O)C1OC2(C)C2C(=O)c3cc4ccccc4cc3C(=O)C12 (stereo not drawn)
GI50 [1]: 24.2 µM
TGI [1]: 92.3 µM
GI50 [2]: 53.3 µM
TGI [2]: > 100 µM
GI50 [3]: 24.7 µM
TGI [3]: 65.3 µM
GI50 [4]: 27 µM
TGI [4]: 92 µM
GI50 [6]: 38.3 µM
TGI [6]: > 100 µM
GI50 [7]: 30.2 µM
TGI [7]: 96.9 µM
GI50 [8]: 26.7 µM
TGI [8]: > 100 µM
GI50 [9]: 21.5 µM
TGI [9]: 65.5 µM
GI50 [12]: 25.9 µM
TGI [12]: > 100 µM
GI50 [54]: 31.8 µM
TGI [54]: 97.1 µM
GI50 [13]: 61.2 µM
TGI [13]: > 100 µM
GI50 [14]: 20.3 µM
TGI [14]: > 100 µM
GI50 [16]: 27.5 µM
TGI [16]: > 100 µM
GI50 [17]: 48.1 µM
TGI [17]: > 100 µM
GI50 [18]: 11.9 µM
TGI [18]: 42.7 µM
GI50 [19]: 16.8 µM
TGI [19]: 57.4 µM
GI50 [21]: 27.8 µM
TGI [21]: > 100 µM
GI50 [22]: 29.3 µM
TGI [22]: > 100 µM
GI50 [23]: 26.3 µM
TGI [23]: 77.8 µM
GI50 [25]: 16.1 µM
TGI [25]: > 100 µM
GI50 [26]: 26.9 µM
TGI [26]: 95.4 µM
GI50 [27]: 15.8 µM
TGI [27]: > 100 µM
GI50 [28]: 26.9 µM
TGI [28]: > 100 µM
GI50 [29]: 16.8 µM
TGI [29]: > 100 µM
GI50 [30]: 75.9 µM
TGI [30]: > 100 µM
GI50 [55]: 12 µM
TGI [55]: 35.7 µM
GI50 [31]: 24.6 µM
TGI [31]: > 100 µM
GI50 [32]: 35.5 µM
TGI [32]: > 100 µM
GI50 [56]: 45.8 µM
TGI [56]: > 100 µM
GI50 [34]: 16 µM
TGI [34]: 46.4 µM
GI50 [35]: 23.4 µM
TGI [35]: 83 µM
GI50 [36]: 56.7 µM
TGI [36]: > 100 µM
GI50 [37]: 39 µM
TGI [37]: > 100 µM
GI50 [39]: 25 µM
TGI [39]: 62.6 µM
GI50 [40]: 44.7 µM
TGI [40]: > 100 µM
GI50 [42]: 24.7 µM
TGI [42]: > 100 µM
GI50 [44]: 21.8 µM
TGI [44]: 58.7 µM
GI50 [57]: 11.1 µM
TGI [57]: 38 µM
GI50 [45]: 21.5 µM
TGI [45]: 79.8 µM
GI50 [46]: 23.1 µM
TGI [46]: > 100 µM
GI50 [47]: 16.9 µM
TGI [47]: 42.1 µM
GI50 [49]: 33.5 µM
TGI [49]: > 100 µM
GI50 [50]: 20.9 µM
TGI [50]: 95.3 µM
GI50 [51]: 21.1 µM
TGI [51]: 56.7 µM
GI50 [53]: 37.8 µM
TGI [53]: > 100 µM
